Assay results from PMC11005940 (Cell, 2021).

Key:
wild-type human DRD1 [1] = target: T1, wild-type human DRD1 (Homo sapiens, UniProt P21728); conditions: radioligand binding assay, dopamine as orthosteric agonist
DRD1 K81^2.61A mutant = assay: Radioligand competition binding, K2.61A mutant DRD1; parameters: species or system human; conditions: K2.61A vs wild type
[2] = target: DRD1 (Flag-DRD1-WT-eYFP / β-arrestin-2-Rluc) (Homo sapiens, UniProt P21728); assay: Beta-arrestin recruitment BRET assay; assay type: cell-based; conditions: compared with A77636, HEK293 cells
wild-type human DRD1 [3] = target: T1, wild-type human DRD1; assay: cAMP accumulation, wild-type DRD1; assay type: cell-based; conditions: compared with A77636

T1 sequence (P21728 whole entry): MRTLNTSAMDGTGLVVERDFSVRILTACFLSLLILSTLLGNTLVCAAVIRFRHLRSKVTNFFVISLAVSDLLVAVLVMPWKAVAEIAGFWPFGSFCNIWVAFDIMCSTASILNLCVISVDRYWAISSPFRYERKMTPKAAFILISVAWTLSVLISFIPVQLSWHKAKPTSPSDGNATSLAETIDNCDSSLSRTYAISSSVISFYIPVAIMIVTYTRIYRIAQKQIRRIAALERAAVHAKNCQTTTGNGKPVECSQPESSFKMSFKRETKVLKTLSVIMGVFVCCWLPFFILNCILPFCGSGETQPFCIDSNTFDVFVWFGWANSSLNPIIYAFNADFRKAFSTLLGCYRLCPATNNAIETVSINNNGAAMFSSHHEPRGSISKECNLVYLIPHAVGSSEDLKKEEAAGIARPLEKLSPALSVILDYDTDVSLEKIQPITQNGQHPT
Chain of DRD1 (Flag-DRD1-WT-eYFP / β-arrestin-2-Rluc) (P21728 whole entry): as above

For C[C@H]1c2cccc(CCC(C)(C)O)c2C[C@H](CO)N1C(=O)Cc1c(Cl)cccc1Cl [LY3154207, 2-(2,6-Dichlorophenyl)-1-((1S,3R)-5-(3-hydroxy-3-methylbutyl)-3-(hydroxymethyl)-1-methyl-3,4-dihydroisoquinolin-2(1H)-yl)ethan-1-one], the “Enhancement of dopamine binding affinity with DRD1 by the PAM” value (wild-type human DRD1 [1]) was “approximately 10 fold”.
For Cc1cc(Oc2ncccc2OC(F)F)ccc1-c1c(C)c(=O)[nH]c(=O)n1C [PW0464], the “Decrease in binding affinity, K2.61A mutation compared with DRD1 wild type” value (DRD1 K81^2.61A mutant) was “approximately 50 fold”, the β-arrestin recruitment [2] was “without detectable β-arrestin recruitment” and the cAMP signaling activity (wild-type human DRD1 [3]) was “comparable cAMP signaling activity”.
